System: Tumor Necrosis Factor alpha (TNFα)
Assay: Lipopolysaccharide (LPS)-induced serum TNFα in rats (oral dosing 2 h before LPS, serum ELISA)
Format: in vivo
Set-up: unit not given here
Conditions: LPS 0.01 mg/Kg intraperitoneal, male Lewis rats
Protocol: The purpose of this study was to examine the ability of compound 1 to suppress lipopolysaccharide (LPS)-induced Tumor Necrosis Factor alpha (TNFα) levels when administered to male Lewis rats.
Compound 1 was added directly to 100% ethanol. The suspension was vortexed vigorously until all of compound 1 was completely dissolved or fully suspended. The solution was made up to volume in 0.5% methylcellulose. The final concentration of ethanol was 10%.
At time minus 2 hours, rats were administered the appropriate amount of prednisolone and/or compound 1 via oral gavage in a dose volume of 0.25 mL. Untreated control and LPS Control animals received 0.25 mL of the vehicle only.
LPS was prepared at a 100X concentration by resuspension in Phosphate Buffered Saline (PBS). The LPS solution was vortexed vigorously to ensure complete suspension of the LPS. Immediately prior to injection, the LPS was serial diluted in PBS to a 1× working solution.
At time 0, animals were injected via the intraperitoneal route with 1.0 mL of the 1×LPS working solution (final LPS dose is 0.01 mg/Kg body weight) using a 25 gauge needle. Vehicle control animals received 1 mL of PBS.
Blood was expelled into a serum separator tube containing Clot Activator (Becton Dickinson, Franklin Lakes, N.J.). Samples were allowed to sit at room temperature for 30 min prior to spinning at 2000 rpm for 10 min in a bench top centrifuge at room temperature. Serum was transferred to an Eppendorf tube and immediately assayed for TNFα or stored at −80° C. until assayed.
Serum samples were assayed using the BioSource Rat TNFα ELISA kit according to the manufacturer's instructions.
Evaluation of the results included statistical analysis of differences in serum TNFα between treatment and control groups. Group means were compared using a one-way ANOVA. If the ANOVA was significant, p≦0.05, a multiple comparison test (Tukey-Kramer) was used to determine which groups were different.

Clc1ccc2c(c1)C(N1CCN(CCN3CCOCC3)CC1)=Nc1ccccc1O2 [compound1]
Serum TNFα ± Standard Error (0.3 mg/kg compound 1, oral gavage at minus 2 hours): 13675.6 ± 7606.9
Serum TNFα ± Standard Error (1 mg/kg compound 1, oral gavage at minus 2 hours): 12769.1 ± 5231.2
Serum TNFα ± Standard Error (3 mg/kg compound 1, oral gavage at minus 2 hours): 12980.4 ± 6788.4

C[C@]12C=CC(=O)C=C1CC[C@@H]1[C@@H]2[C@@H](O)C[C@@]2(C)[C@H]1CC[C@]2(O)C(=O)CO [prednisolone, reference compound]
Serum TNFα ± Standard Error (0.3 mg/kg prednisolone, oral gavage at minus 2 hours): 11375.9 ± 5238.4
Serum TNFα ± Standard Error (10 mg/kg prednisolone, oral gavage at minus 2 hours): 6239.3 ± 5020.4

Source: patent publication US20060281722A1, “Compounds and uses thereof” (priority 2005, published 2006)
